Test results published in patent publication US20140057895A1, “INDAZOLE- AND PYRROLOPYRIDINE-DERIVATIVE AND PHARMACEUTICAL USE THEREOF” (priority 2011, published 2014).
pEC50, pIC50: −log10 of the molar value. Counter-ions that a name gives are not always drawn.

How the values were obtained:
[1] = target: T1, human 5-HT4b receptor (Homo sapiens, UniProt Q13639); test: Test Example 2: Serotonin 4 (5-HT4) receptor agonist activity assay, cAMP HTRF in CHO cells (Table 97); assay type: cell-based; conditions: cAMP in CHO cells expressing human 5-HT4b receptor, mean value; for Emax: 0.25 h, intrinsic activity, maximal activity of 5-HT defined as 100%, read-out: IA (%); for pEC50: concentration showing 50% of IA
T1 construct: expressed in transfected cells; host or cells: CHO cells (G418 selection)
T1 sequence (Q13639 whole entry): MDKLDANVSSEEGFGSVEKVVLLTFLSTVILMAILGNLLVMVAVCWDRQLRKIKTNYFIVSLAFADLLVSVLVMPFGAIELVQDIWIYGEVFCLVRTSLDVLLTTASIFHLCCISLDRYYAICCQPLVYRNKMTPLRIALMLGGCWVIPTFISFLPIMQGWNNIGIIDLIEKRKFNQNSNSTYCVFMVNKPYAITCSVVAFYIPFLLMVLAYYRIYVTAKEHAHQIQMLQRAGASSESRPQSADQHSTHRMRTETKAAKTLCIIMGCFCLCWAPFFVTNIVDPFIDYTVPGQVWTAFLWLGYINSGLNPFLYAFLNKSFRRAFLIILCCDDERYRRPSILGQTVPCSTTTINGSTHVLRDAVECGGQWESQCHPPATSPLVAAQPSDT
Experimental: The cAMP measurement test used herein was carried out by using CISBIO HTRF (trademark) cAMP Hirange kit according to the manufacturer's instructions attached therewith.
CHO cells expressing human 5-HT4b receptor were incubated in Medium 1 [DMEM/1% NEAA, 1% penicillin/streptomycin (P/S), 0.2 mg/mL GENETICIN (G418), 10% FBS] at 37° C. under 5% CO2 condition. Then, the cells were put into Medium 2 (DMEM/10000 cut FBS, G-418, P/S, NEAA) for 1 to 2 hours, and collected by treating with trypsin containing EDTA. The collected cells were suspended in Assay Buffer 1 [100 mM Hanks/HEPES buffer (pH 7.4)], the suspended cells were mixed with the testing compound on 384-well plates, and the cells were incubated at 31° C. for 15 minutes. To the cells were added cAMP-cryptate solution and cAMP-d2 solution, and they were incubated at room temperature for 1 hour. Then, time-resolved fluorescence was measured by En Vision (excitation wavelength: 330 nm, fluorescence wavelength: 620/665 nm). An intrinsic activity of the compound [IA (%)] and a concentration showing 50% of IA [EC50 (nM)] were calculated from the obtained results. In particular, the intrinsic activity (IA) was calculated on the basis of the maximal activity of 5-HT (measured from 10^−11 M to 10^−7 M) defined as 100%.
(§1) In the following table, the compounds used in the test are shown in numbers which correspond to the Example numbers above where the preparations of the compounds are described.

[2] = target: T2, 5-HT4 receptor (Cavia porcellus, UniProt O70528); test: Test Example 1: Serotonin 4 (5-HT4) receptor binding assay, [3H]-GR113808, guinea pig striatum membranes (Table 96); conditions: Guinea pig 5-HT4 receptor binding assay, [3H]-GR113808, striatum membranes; mean value of each group
T2 construct: striatum was isolated which was cryopreserved at −80° C. until use; from tissue; host or cells: guinea pig (Slc-Hartley) striatum membranes
T2 sequence (O70528 whole entry): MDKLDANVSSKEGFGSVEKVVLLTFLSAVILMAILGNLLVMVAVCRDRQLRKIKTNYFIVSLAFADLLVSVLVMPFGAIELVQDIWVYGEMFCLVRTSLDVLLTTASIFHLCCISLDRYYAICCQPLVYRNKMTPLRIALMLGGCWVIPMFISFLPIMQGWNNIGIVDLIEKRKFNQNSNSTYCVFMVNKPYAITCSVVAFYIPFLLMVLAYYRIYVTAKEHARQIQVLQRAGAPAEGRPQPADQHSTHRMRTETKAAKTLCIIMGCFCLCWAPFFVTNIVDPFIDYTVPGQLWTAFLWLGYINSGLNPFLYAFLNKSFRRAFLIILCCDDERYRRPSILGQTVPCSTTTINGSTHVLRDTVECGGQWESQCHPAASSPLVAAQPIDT
Experimental: The 5-HT4 receptor binding assay and preparations of receptor membrane preparations herein were carried out according to a method of Grossman et al. [see, British J. Pharmacol., (1993) 109, 618].
Slc-Hartley guinea pigs (body weight 300 g to 400 g) were decapitated to remove brain rapidly, and striatum was isolated which was cryopreserved at −80° C. until use. To the obtained tissues were added fifteen fold of Hepes buffer (50 mM, pH 7.4, 4° C.), and the mixture was homogenized by Teflon (trademark) homogenizer and centrifuged at 48,000×g (4° C.) for 15 minutes. To the resulting precipitate was added Hepes buffer (1 ml) to 30 mg by wet weight of tissues, and the mixture was suspended to give receptor membrane preparations.
To an assay tube were added 0.1 nM [^3H]-GR113808 {chemical name: [1-[2-(methylsulfonylamino)ethyl]-4-piperidinyl]methyl 1-methylindole-3-carboxylate}, receptor membrane preparations, and Hepes buffer (50 mM, pH 7.4, 4° C., 1 ml) containing test compounds or 30 μM serotonin; and the mixture was incubated at 37° C. for 30 minutes. On quenching the reaction, the mixture was rapidly filtered on whatman GF/B filter, which was presoaked in 0.1% polyethyleneimine for 1 hour, by using Brandel cell Harvester, and washed with ice-cooled 50 mM Tris-HCl (pH 7.7, 4 ml) three times. To the filter after filtration was added a liquid scintillator (Ecoscint), and then a radioactivity was determined by a liquid scintillation counter.
50% Inhibition concentrations (IC50) were determined from inhibition rates of test compounds to specific bindings which were obtained by subtracting nonspecific bindings from total binding amounts of [^3H]-GR113808.
as §1

[3] = target: T1, human 5-HT4b receptor; test: Test Example 4: Serotonin 4 (5-HT4) receptor agonist activity assay, cAMP HTRF in CHO cells (Table 100); assay type: cell-based; conditions: mean value; for Emax: CHO, 0.25 h, intrinsic activity, maximal activity of 5-HT defined as 100%, read-out: IA (%); for pEC50: concentration showing 50% of IA
Outline: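 Read-out is HTRF cAMP (time-resolved fluorescence 620/665 nm after 1 h RT with cAMP-cryptate and cAMP-d2), from recombinant CHO cells bearing human 5-HT4b treated with compound 15 min at 31° C. in Hanks/HEPES buffer pH 7.4. IA (%) scaled to peak 5-HT effect over 10^−11–10^−7 M; EC50 is concentration giving half that IA.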

[4] = target: T2, 5-HT4 receptor; test: Test Example 3: Guinea pig 5-HT4 receptor binding assay, [3H]-GR113808, striatum membranes (Table 98); conditions: Guinea pig 5-HT4 receptor binding assay, [3H]-GR113808, striatum membranes; mean value of each group; read-out: IC50
Outline: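 Striatal membranes from Slc-Hartley guinea pigs were incubated with 0.1 nM [3H]-GR113808 and test compounds in 50 mM Hepes pH 7.4 at 37° C for 30 min; nonspecific binding was defined with 30 μM serotonin. Bound radioactivity was collected by filtration, and IC50 was derived from inhibition of specific binding.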

[5] = target: T3, Human 5-HT4 receptor (5-HT4b) (Homo sapiens, UniProt Q13639); test: Test Example 3: Human 5-HT4 receptor binding assay, membranes of CHO-K1 cells stably expressing 5-HT4b receptors (Table 99); conditions: mean value of each group
T3 construct: expressed in transfected cells; membrane preparation
T3 sequence (Q13639 whole entry): as the sequence (Q13639 whole entry) above
Outline: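 Radioligand displacement: [3H]-GR113808 (0.1 nM) bound to CHO-K1 5-HT4b membranes for 30 min at 37 °C in Hepes buffer (50 mM, pH 7.4). Specific binding is total minus that with 30 μM serotonin; filter-bound radioactivity counted, IC50 derived from percent inhibition.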

| SMILES | Emax [1] [%] | pEC50 [1] | pIC50 [2] | Emax [3] [%] | pEC50 [3] | pIC50 [4] | pIC50 [5] |
| --- | --- | --- | --- | --- | --- | --- | --- |
| COCCCN1CCC(c2nc(-n3nc(C(C)C)c4ccccc43)no2)CC1 [Example 85, 1-{5-[1-(3-methoxypropyl)piperidin-4-yl]-1,2,4-oxadiazol-3-yl}-3-(propan-2-yl)-1H-indazole] | 125 | 8.08 | 7.51 |  |  |  |  |
| CCc1nn(-c2noc(C3CCN(CCCOC)CC3)n2)c2ccccc12 [Example 87, 3-ethyl-1-{5-[1-(3-methoxypropyl)piperidin-4-yl]-1,2,4-oxadiazol-3-yl}-1H-indazole trifluoroacetate] | 80 | 8.03 | 7.68 |  |  |  |  |
| COCCCN1CCC(c2nc(-n3nc(C4CC4)c4ccccc43)no2)CC1 [Example 88, 3-cyclopropyl-1-{5-[1-(3-methoxypropyl)piperidin-4-yl]-1,2,4-oxadiazol-3-yl}-1H-indazole trifluoroacetate] | 37 | 7.79 | 7.47 |  |  |  |  |
| CCc1nn(-c2noc(C3CCN(CCCOC)CC3)n2)c2cc(F)ccc12 [Example 92, 3-ethyl-6-fluoro-1-{5-[1-(3-methoxypropyl)piperidin-4-yl]-1,2,4-oxadiazol-3-yl}-1H-indazole] | 92 | 8.19 | > 7.70 |  |  |  |  |
| CCc1nn(-c2noc(C3CCN(CCCOC)CC3)n2)c2c(F)cccc12 [Example 95, 3-ethyl-7-fluoro-1-{5-[1-(3-methoxypropyl)piperidin-4-yl]-1,2,4-oxadiazol-3-yl}-1H-indazole] | 43 | 8.43 | > 7.70 |  |  |  |  |
| CC(C)CN1CCC(c2nc(-n3nc(C(C)C)c4ccccc43)no2)CC1 [Example 98, 1-{5-[1-(2-methylpropyl)piperidin-4-yl]-1,2,4-oxadiazol-3-yl}-3-(propan-2-yl)-1H-indazole trifluoroacetate] | 110 | 7.81 | 7.49 |  |  |  |  |
| CCc1nn(-c2noc(C3CCN(C(C)CC)CC3)n2)c2ccccc12 (centres unmarked) [Example 101, 1-{5-[1-(butan-2-yl)piperidin-4-yl]-1,2,4-oxadiazol-3-yl}-3-ethyl-1H-indazole trifluoroacetate] | 70 | 8.05 | > 7.70 |  |  |  |  |
| CCC(C)N1CCC(c2nc(-n3nc(C4CC4)c4ccccc43)no2)CC1 (centres unmarked) [Example 102, 1-{5-[1-(butan-2-yl)piperidin-4-yl]-1,2,4-oxadiazol-3-yl}-3-cyclopropyl-1H-indazole trifluoroacetate] | 26 | 8.10 | > 7.70 |  |  |  |  |
| CCc1nn(-c2noc(C3CCN(CC(C)C)CC3)n2)c2ccccc12 [Example 103, 3-ethyl-1-(5-[1-(2-methylpropyl)piperidin-4-yl]-1,2,4-oxadiazol-3-yl}-1H-indazole] | 59 | 7.96 | > 7.70 |  |  |  |  |
| CCc1nn(-c2noc(C3CCN(CC4CC4)CC3)n2)c2ccccc12 [Example 112, 1-{5-[1-(cyclopropylmethyl)piperidin-4-yl]-1,2,4-oxadiazol-3-yl}-3-ethyl-1H-indazole trifluoroacetate] | 73 | 7.60 | 7.58 |  |  |  |  |
| CCC(C)N1CCC(c2nc(-n3nc(C4CCC4)c4ccccc43)no2)CC1 (centres unmarked) [Example 114, 1-{5-[1-(butan-2-yl)piperidin-4-yl]-1,2,4-oxadiazol-3-yl}-3-cyclobutyl-1H-indazole trifluoroacetate] | 68 | 7.28 | 7.58 |  |  |  |  |
| CC(C)CN1CCC(c2nc(-n3nc(C4CCC4)c4ccccc43)no2)CC1 [Example 115, 3-cyclobutyl-1-{5-[1-{2-methylpropyl)piperidin-4-yl]-1,2,4-oxadiazol-3-yl}-1H-indazole trifluoroacetate] | 58 | 6.82 | 7.40 |  |  |  |  |
| CCCN1CCC(c2nc(-n3nc(C(C)C)c4ccccc43)no2)CC1 [Example 117, 3-(propan-2-yl)-1-[5-(1-propylpiperidin-4-yl)-1,2,4-oxadiazol-3-yl]-1H-indazole trifluoroacetate] | 83 | 7.53 | 7.59 |  |  |  |  |
| CCc1nn(-c2noc(C3CCN(CCC4CCCO4)CC3)n2)c2cc(F)ccc12 (centres unmarked) [Example 131, 3-ethyl-6-fluoro-1-(5-{1-[2-(tetrahydrofuran-2-yl)ethyl]piperidin-4-yl}-1,2,4-oxadiazol-3-yl)-1H-indazole] | 77 | 8.03 | > 7.70 |  |  |  |  |
| CCc1nn(-c2noc(C3CCN(CC4CN(C(=O)COC)C4)CC3)n2)c2c(F)cccc12 [Example 224, 1-[3-({4-[3-(3-ethyl-7-fluoro-1H-indazol-1-yl)-1,2,4-oxadiazol-5-yl]piperidin-1-yl}methyl)azetidin-1-yl]-2-methoxyethanone hydrochloride] |  |  | > 7.70 | 73.9 | 8.17 | > 7.70 |  |
| CCN[C@H]1C[C@@H](c2nc(-n3nc(CC)c4ccc(F)cc43)no2)C1 [Example 278, cis-N-ethyl-3-[3-(3-ethyl-6-fluoro-1H-indazol-1-yl)-1,2,4-oxadiazol-5-yl]cyclobutanamine] |  |  | > 7.70 |  |  |  |  |
| COCCN(C1CCOCC1)[C@H]1C[C@@H](c2nc(-n3nc(C(C)C)c4cccc(F)c43)no2)C1 [Example 614, N-(cis-3-{3-[7-fluoro-3-(propan-2-yl)-1H-indazol-1-yl]-1,2,4-oxadiazol-5-yl}cyclobutyl)-N-(2-methoxyethyl)tetrahydro-2H-pyran-4-amine] |  |  |  | 93 | 7.96 |  | > 7.70 |
| CC(C)c1nn(-c2noc([C@H]3CC[C@@H](NCCC4CN(S(C)(=O)=O)C4)CC3)n2)c2c(F)cccc12 [Example 617, cis-4-{3-[7-fluoro-3-(propan-2-yl)-1H-indazol-1-yl]-1,2,4-oxadiazol-5-yl}-N-{2-[1-(methylsulfonyl)azetidin-3-yl]ethyl}cyclohexanamine] |  |  |  | 104 | 8.08 |  | 7.61 |
| CC(C)c1nn(-c2noc([C@H]3CC[C@@H](NCC4CCN(S(C)(=O)=O)CC4)CC3)n2)c2c(F)cccc12 [Example 618, cis-4-{3-[7-fluoro-3-(propan-2-yl)-1H-indazol-1-yl]-1,2,4-oxadiazol-5-yl}-N-{[1-(methylsulfonyl)piperidin-4-yl]methyl}cyclohexanamine] |  |  |  | 32 | 8.21 |  | > 7.70 |
